Experimental data taken from patent US20140107100A1, “Benzoxazepines as Inhibitors of PI3K/mTOR and Methods of Their Use and Manufacture” (EXELIXIS, INC., priority 2010, published 2014).

Experiments:
[1] = target: PI3Kα (Homo sapiens, UniProt P42336); assay: PI3K biochemical assay, ATP consumption by luciferase-luciferin chemiluminescence; details: 3 nM enzyme, 10 μM PIP2, approximately 2 h; read-out: IC50 in the PI3K-alpha assay
Description: P13Kα activity was measured as the percent of ATP consumed following the kinase reaction using luciferase-luciferin-coupled chemiluminescence. Reactions were conducted in 384-well white, medium binding microliter plates (Greiner). Kinase reactions were initiated by combining test compounds. ATP, substrate (PIP2), and kinase in a 20 μL volume in a buffer solution. The standard P13Kalpha assay buffer was composed 50 mM Tris, pH 7.5, 1 mM EGTA, 10 mM MgCl2, 1 mM DTT and 0.03% CHAPS. The standard assay concentrations for enzyme, ATP, and substrate were 3 nM, IpM, and 10 μM, respectively. The reaction mixture was incubated at ambient temperature for approximately 2 h. Following the kinase reaction, a 10 μL aliquot of luciferase-luciferin mix (Promega Kinase-Glo) was added and the chemiluminescence signal measured using a Victor2 or EnVision (Perkin Elmer). Total ATP consumption was limited to 40-60% and IC50 values of control compounds correlate well with literature references. Substituting P13Kα with P13Kβ, […], or PI3Kδ, the inhibitory activity of the compounds for the other isoforms of P13-K were measured. For the P13Kβ and P13Kβ assays, enzyme concentrations were 10 nM and 4 nM. respectively. For the P13γ assay, enzyme concentration was 40 nM, the incubation time was 1 h, and the concentration of MgCl2 in the assay buffer was 5 mM.

[2] = target: mTOR/GbL/Raptor (mTORC1) (Homo sapiens, UniProt P42345); assay: mTOR/GbL/Raptor (mTORC1) ELISA assay, phosphorylation of 4E-BP1; type: biochemical; details: 0.2 nM mTORC1, 40 uM ATP, 50 nM NHis-tagged 4E-BP1, 120 minutes; read-out: IC50 in this assay (mTORC1 ELISA)
Summary of the method: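 Phospho-4E-BP1 was quantified by luminescent ELISA (anti-phospho-4E-BP1 IgG, HRP-tagged secondary) after capture of the His-tagged substrate on Ni-chelate plates.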

Sequence of PI3Kα (P42336 whole entry): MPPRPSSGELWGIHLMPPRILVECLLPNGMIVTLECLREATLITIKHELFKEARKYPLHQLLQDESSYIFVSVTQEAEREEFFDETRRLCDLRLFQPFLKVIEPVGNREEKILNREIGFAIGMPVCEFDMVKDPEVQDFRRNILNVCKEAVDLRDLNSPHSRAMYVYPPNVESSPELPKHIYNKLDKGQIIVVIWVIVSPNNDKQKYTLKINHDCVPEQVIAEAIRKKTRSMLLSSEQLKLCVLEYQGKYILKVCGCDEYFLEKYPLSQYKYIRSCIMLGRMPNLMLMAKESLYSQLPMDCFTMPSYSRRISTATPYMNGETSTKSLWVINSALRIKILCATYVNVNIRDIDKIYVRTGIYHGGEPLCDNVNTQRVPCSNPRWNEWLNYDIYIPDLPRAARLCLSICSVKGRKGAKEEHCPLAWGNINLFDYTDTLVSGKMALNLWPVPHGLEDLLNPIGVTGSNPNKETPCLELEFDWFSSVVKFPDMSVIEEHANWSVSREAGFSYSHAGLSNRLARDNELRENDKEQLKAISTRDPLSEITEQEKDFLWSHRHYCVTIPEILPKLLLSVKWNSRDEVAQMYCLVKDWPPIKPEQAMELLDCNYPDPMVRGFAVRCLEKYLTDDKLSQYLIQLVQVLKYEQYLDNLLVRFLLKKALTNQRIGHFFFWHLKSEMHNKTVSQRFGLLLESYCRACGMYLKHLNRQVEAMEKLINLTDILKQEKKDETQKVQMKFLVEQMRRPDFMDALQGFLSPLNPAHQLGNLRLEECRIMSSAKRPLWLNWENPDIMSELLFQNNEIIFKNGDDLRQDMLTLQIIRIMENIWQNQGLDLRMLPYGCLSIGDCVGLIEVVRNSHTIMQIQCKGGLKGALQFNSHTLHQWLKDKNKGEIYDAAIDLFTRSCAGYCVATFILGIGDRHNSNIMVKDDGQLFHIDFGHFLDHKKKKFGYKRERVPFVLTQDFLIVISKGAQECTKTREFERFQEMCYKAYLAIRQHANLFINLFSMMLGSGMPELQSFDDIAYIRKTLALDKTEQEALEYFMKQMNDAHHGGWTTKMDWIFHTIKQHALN
Sequence of PI3Kα (P27986 whole entry partner): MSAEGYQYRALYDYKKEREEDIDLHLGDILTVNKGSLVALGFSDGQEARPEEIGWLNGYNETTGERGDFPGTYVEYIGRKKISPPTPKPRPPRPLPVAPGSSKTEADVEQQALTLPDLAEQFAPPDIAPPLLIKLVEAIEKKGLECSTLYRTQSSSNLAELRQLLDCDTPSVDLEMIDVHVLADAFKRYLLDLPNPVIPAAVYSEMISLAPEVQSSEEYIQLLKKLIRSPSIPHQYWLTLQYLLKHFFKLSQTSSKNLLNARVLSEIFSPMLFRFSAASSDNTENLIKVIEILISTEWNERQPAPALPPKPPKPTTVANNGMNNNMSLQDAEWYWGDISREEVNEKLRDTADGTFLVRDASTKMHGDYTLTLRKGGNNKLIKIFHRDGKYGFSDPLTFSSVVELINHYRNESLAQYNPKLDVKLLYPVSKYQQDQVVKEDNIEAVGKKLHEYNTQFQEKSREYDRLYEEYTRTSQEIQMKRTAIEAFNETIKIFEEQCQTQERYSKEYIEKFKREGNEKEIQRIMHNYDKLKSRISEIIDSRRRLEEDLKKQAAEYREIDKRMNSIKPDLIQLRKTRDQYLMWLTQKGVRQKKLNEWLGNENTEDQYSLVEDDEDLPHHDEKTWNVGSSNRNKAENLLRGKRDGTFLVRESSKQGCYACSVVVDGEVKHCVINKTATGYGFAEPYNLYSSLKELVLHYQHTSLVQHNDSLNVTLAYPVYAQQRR

Structure (SMILES)	IC50 [1]	IC50 [2]
Cc1cc(-c2cn(C)nc2C)cc2c1OCCN(c1nc(N)nc(C)c1C(C)C)C2 [Compound 109, 4-[7-(1,3-dimethyl-1H-pyrazol-4-yl)-9-methyl-2,3-dihydro-1,4-benzoxazepin-4(5H)-yl]-6-methyl-5-(1-methylethyl)pyrimidin-2-amine]	500 to 2500 nM	100 to 500 nM
Cc1cc(-c2cccc(N)c2)cc2c1OCCN(c1nc(N)nc(C)c1C(C)C)C2 [Compound 69, 4-[7-(3-aminophenyl)-9-methyl-2,3-dihydro-1,4-benzoxazepin-4(5H)-yl]-6-methyl-5-(1-methylethyl)pyrimidin-2-amine]	500 to 2500 nM	100 to 500 nM
[2H]C1([2H])Oc2c(C)cc(-c3cnc4sc(N)nc4c3)cc2CN(c2nc(N)nc(C)c2C(C)C)C1([2H])[2H] [Compound 122, 6-{4-[2-amino-6-methyl-5-(1-methylethyl)pyrimidin-4-yl]-2,3,4,5-tetrahydro-1,4-benzoxazepin-7-yl}[1,3]thiazolo[5,4-b]pyridin-2-amine-d_4_]	≤ 100 nM	≤ 100 nM
CCNC(=O)c1sc(N2CCOc3c(C)cc(-c4cnc(Cl)c(NS(C)(=O)=O)c4)cc3C2)nc1C(C)C [Compound 33, 2-[7-{6-chloro-5-[(methylsulfonyl)amino]pyridin-3-yl}-9-methyl-2,3-dihydro-1,4-benzoxazepin-4(5H)-yl]-N-ethyl-4-(1-methylethyl)-1,3-thiazole-5-carboxamide]	500 to 2500 nM	100 to 500 nM
COC(=O)c1ccc(-c2cc(C)c3c(c2)CN(c2nc(N)nc(C)c2C(C)C)CCO3)cc1OC [Compound 68, methyl 4-{4-[2-amino-6-methyl-5-(1-methylethyl)pyrimidin-4-yl]-9-methyl-2,3,4,5-tetrahydro-1,4-benzoxazepin-7-yl}-2-(methyloxy)benzoate]	500 to 2500 nM	100 to 500 nM
Cc1cc(-c2cnn(C)c2C)cc2c1OCCN(c1nc(N)nc(C)c1C(C)C)C2 [Compound 110, 4-[7-(1,5-dimethyl-1H-pyrazol-4-yl)-9-methyl-2,3-dihydro-1,4-benzoxazepin-4(5H)-yl]-6-methyl-5-(1-methylethyl)pyrimidin-2-amine]	500 to 2500 nM	100 to 500 nM
Cc1cc(-c2cnc3sc(N)nc3c2)cc2c1OCCN(c1nccc(N)n1)C2 [Compound 25, 6-[4-(4-aminopyrimidin-2-yl)-9-methyl-2,3,4,5-tetrahydro-1,4-benzoxazepin-7-yl][1,3]thiazolo[5,4-b]pyridin-2-amine]	–	100 to 500 nM
CC(=O)Nc1ncc(-c2cc(C)c3c(c2)CN(c2nc(N)nc(C)c2C(C)C)CCO3)s1 [Compound 106, N-(5-{4-[2-amino-6-methyl-5-(1-methylethyl)pyrimidin-4-yl]-9-methyl-2,3,4,5-tetrahydro-1,4-benzoxazepin-7-yl}-1,3-thiazol-2-yl)acetamide]	–	≤ 100 nM
Cc1cc(-c2cnc3sc(N)nc3c2)cc2c1OCCN(c1nc(CN(C)C)ncc1CC(F)(F)F)C2 [Compound 60, 6-(4-{2-[(dimethylamino)methyl]-5-(2,2,2-trifluoroethyl)pyrimidin-4-yl}-9-methyl-2,3,4,5-tetrahydro-1,4-benzoxazepin-7-yl)[1,3]thiazolo[5,4-b]pyridin-2-amine]	–	100 to 500 nM
C=Cc1c(C)nc(N)nc1N1CCOc2c(C)cc(-c3cnc4sc(N)nc4c3)cc2C1 [Compound 9, 6-[4-(2-amino-5-ethenyl-6-methylpyrimidin-4-yl)-9-methyl-2,3,4,5-tetrahydro-1,4-benzoxazepin-7-yl][1,3]thiazolo[5,4-b]pyridin-2-amine]	–	≤ 100 nM
COc1ccc(-c2cc(C)c3c(c2)CN(c2nc(N)nc(C)c2C(C)C)CCO3)cc1OC [Compound 78, 4-{7-[3,4-bis(methyloxy)phenyl]-9-methyl-2,3-dihydro-1,4-benzoxazepin-4(5H)-yl}-6-methyl-5-(1-methylethyl)pyrimidin-2-amine]	–	100 to 500 nM
Cc1cc(-c2nnc(N)s2)cc2c1OCCN(c1nc(N)ncc1C(C)C)C2 [Compound 180, 4-[7-(5-amino-1,3,4-thiadiazol-2-yl)-9-methyl-2,3-dihydro-1,4-benzoxazepin-4(5H)-yl]-5-(1-methylethyl)pyrimidin-2-amine]	–	≤ 100 nM
Cc1cc(-c2nnc(N)s2)cc2c1OCCN(c1ncnc(C)c1C(C)C)C2 [Compound 173, 5-{9-methyl-4-[6-methyl-5-(1-methylethyl)pyrimidin-4-yl]-2,3,4,5-tetrahydro-1,4-benzoxazepin-7-yl}-1,3,4-thiadiazol-2-amine]	–	≤ 100 nM
Cc1cnc(N)nc1N1CCOc2c(C)cc(-c3nnc(N)s3)cc2C1 [Compound 178, 4-[7-(5-amino-1,3,4-thiadiazol-2-yl)-9-methyl-2,3-dihydro-1,4-benzoxazepin-4(5H)-yl]-5-methylpyrimidin-2-amine]	–	≤ 100 nM
Cc1cc(-c2cnn(C)c2)cc2c1OCCN(c1nc(N)nc(C)c1C(C)C)C2 [Compound 117, 4-methyl-5-(1-methylethyl)-6-[9-methyl-7-(1-methyl-1H-pyrazol-4-yl)-2,3-dihydro-1,4-benzoxazepin-4(5H)-yl]pyrimidin-2-amine]	–	100 to 500 nM
Cc1cc(-c2cnc3sc(N)nc3c2)cc2c1OCCN(c1ccc(C#N)cn1)C2 [Compound 36, 6-[7-(2-amino[1,3]thiazolo[5,4-b]pyridin-6-yl)-9-methyl-2,3-dihydro-1,4-benzoxazepin-4(5H)-yl]pyridine-3-carbonitrile]	–	100 to 500 nM
Cc1cc(-c2cnc(Cl)c(NS(C)(=O)=O)c2)cc2c1OCCN(c1nc(C(=O)NCCN(C)C)nc(C)c1C(C)C)C2 [Compound 43, 4-[7-(6-chloro-5-[(methylsulfonyl)amino]pyridin-3-yl}-9-methyl-2,3-dihydro-1,4-benzoxazepin-4(5H)-yl]-N-[2-(dimethylamino)ethyl]-6-methyl-5-(1-methylethyl)pyrimidine-2-carboxamide]	–	≤ 100 nM
Cc1cc(-c2cnc3sc(N)nc3c2)cc2c1OCCN(c1nc(C(F)F)nc(C)c1C(C)C)C2 [Compound 144, 6-{4-[2-(difluoromethyl)-6-methyl-5-(1-methylethyl)pyrimidin-4-yl]-9-methyl-2,3,4,5-tetrahydro-1,4-benzoxazepin-7-yl}[1,3]thiazolo[5,4-b]pyridin-2-amine]	–	≤ 100 nM
Cc1cc(-c2cnc(Cl)c(NS(C)(=O)=O)c2)cc2c1OCCN(c1nc(CNCCF)nc(C)c1C(C)C)C2 [Compound 161, N-(2-chloro-5-{4-[2-{[(2-fluoroethyl)amino]methyl}-6-methyl-5-(1-methylethyl)pyrimidin-4-yl]-9-methyl-2,3,4,5-tetrahydro-1,4-benzoxazepin-7-yl}pyridin-3-yl)methanesulfonamide]	–	≤ 100 nM
COc1cncc(-c2cc(C)c3c(c2)CN(c2nc(N)nc(C)c2C(C)C)CCO3)c1 [Compound 79, 4-methyl-5-(1-methylethyl)-6-{9-methyl-7-[5-(methyloxy)pyridin-3-yl]-2,3-dihydro-1,4-benzoxazepin-4(5H)-yl}pyrimidin-2-amine]	–	100 to 500 nM
Cc1cc(-c2cnc(N)nc2)cc2c1OCCN(c1nc(N)nc(C)c1C(C)C)C2 [Compound 81, 4-[7-(2-aminopyrimidin-5-yl)-9-methyl-2,3-dihydro-1,4-benzoxazepin-4(5H)-yl]-6-methyl-5-(1-methylethyl)pyrimidin-2-amine]	–	100 to 500 nM
Cc1cc(-c2cnc3sc(N)nc3c2)cc2c1OCCN(c1nc(CO)nc(C)c1C(C)C)C2 [Compound 64, {4-[7-(2-amino[1,3]thiazolo[5,4-b]pyridin-6-yl)-9-methyl-2,3-dihydro-1,4-benzoxazepin-4(5H)-yl]-6-methyl-5-(1-methylethyl)pyrimidin-2-yl}methanol]	–	≤ 100 nM
Cc1cc(-c2cnc3nc[nH]c3c2)cc2c1OCCN(c1nc(CNCC(F)F)nc(C)c1C(C)C)C2 [Compound 165, 2,2-difluoro-N-({4-[7-(1H-imidazo[4,5-b]pyridin-6-yl)-9-methyl-2,3-dihydro-1,4-benzoxazepin-4(5H)-yl]-6-methyl-5-(1-methylethyl)pyrimidin-2-yl}methyl)ethanamine]	–	≤ 100 nM
COCCc1c(C)ncnc1N1CCOc2c(C)cc(-c3cnc4sc(N)nc4c3)cc2C1 [Compound 129, 6-(9-methyl-4-{6-methyl-5-[2-(methyloxy)ethyl]pyrimidin-4-yl}-2,3,4,5-tetrahydrio-1,4-benzoxazepin-7-yl)[1,3]thiazolo[5,4-b]pyridin-2-amine]	–	≤ 100 nM
COCc1nc(C)c(C(C)C)c(N2CCOc3c(C)cc(-c4cnc5sc(N)nc5c4)cc3C2)n1 [Compound 93, 6-(9-methyl-4-{6-methyl-5-(1-methylethyl)-2-[(methyloxy)methyl]pyrimidin-4-yl}-2,3,4,5-tetrahydro-1,4-benzoxazepin-7-yl)[1,3]thiazolo[5,4-b]pyridin-2-amine]	–	≤ 100 nM
Cc1cc(-c2cnc3sc(N)nc3c2)cc2c1OCCN(c1ncc(F)c(N)n1)C2 [Compound 35, 6-[4-(4-amino-5-fluoropyrimidin-2-yl)-9-methyl-2,3,4,5-tetrahydro-1,4-benzoxazepin-7-yl][1,3]thiazolo[5,4-b]pyridin-2-amine]	–	100 to 500 nM
